The values below come from patent publication US20110105543A1, “NOVEL TRIARYL DERIVATIVES USEFUL AS MODULATORS OF NICOTINIC ACETYLCHOLINE RECEPTORS” (NeuroSearch A/S, priority 2008, published 2011).

One series addresses T1, nAChR α7 receptors (Homo sapiens, UniProt P36544).
T1 construct: expressed in transfected cells; host or cells: Xenopus laevis oocytes
Nature of the series: Positive modulation of acetylcholine-induced currents at wild-type nAChR α7 receptors expressed in Xenopus laevis oocytes (two-electrode voltage clamp). Format: cell-based. The settings on record: for effect on acetylcholine-induced current amplitude: compound 0.01-31.6 μM applied 30 s before and during 100 μM acetylcholine; for maximal modulation of the acetylcholine response (Imax) / EC50: nAChR α7 in Xenopus oocytes, 100 μM acetylcholine; for maximal modulation of the acetylcholine response (Imax): (test-control)/control*100%; for EC50: clamped at -60 mV, compound 0.01-31.6 μM, read-out: calculated EC50 value for positive modulation of 100 μM acetylcholine responses. Here is the method:
In this example the positive modulation of wild-type nAChR α7 receptors by Compound 2 (i.e. 4-[5-Amino-6-(2,4-dichloro-phenyl)-pyrimidin-4-yl]-phenol; FIGS. 1A and 1B) and by Compound 6 (i.e. 2′-Amino-5′,2″-difluoro-4″-trifluoromethyl-[1,1′;3′,1″]terphenyl-4-ol; FIGS. 2A and 2B) was determined using nAChR α7 receptors heterologously expressed in Xenopus laevis oocytes.
The electrical current through the nAChR α7 channel was measured using conventional two-electrode voltage clamp and nAChR α7 currents were activated by applying pulses of agonist-containing solution onto the nAChR α7 expressing oocyte.
In brief, the oocytes were placed in a recording chambers and continuously superfused with an Oocyte Ringer (OR) solution containing 90 mM NaCl, 2.5 mM KCl, 2.5 mM CaCl2, 1 mM MgCl2 and 5 mM HEPES (pH adjusted to 7.4). The oocytes were clamped at −60 mV and currents were induced by applying 20 s pulses of 100 μM acetylcholine dissolved in OR. The intervals between the acetylcholine applications were 5 minutes, during which the oocytes were washed with OR. The first three applications were control applications to insure a constant response level of 100 μM acetylcholine.
The positive modulation in the presence of Compound 2 or Compound 6 was calculated as (test-control)/control*100% and the concentration response curve for this positive modulation was fitted to the sigmoidal logistic equation: I=Imax/(1+(EC50/[compound])^n), where Imax represents the maximal modulation of the control response, EC50 is the concentration causing a half maximal response, and n is the slope coefficient.

T1 sequence (P36544 23-502): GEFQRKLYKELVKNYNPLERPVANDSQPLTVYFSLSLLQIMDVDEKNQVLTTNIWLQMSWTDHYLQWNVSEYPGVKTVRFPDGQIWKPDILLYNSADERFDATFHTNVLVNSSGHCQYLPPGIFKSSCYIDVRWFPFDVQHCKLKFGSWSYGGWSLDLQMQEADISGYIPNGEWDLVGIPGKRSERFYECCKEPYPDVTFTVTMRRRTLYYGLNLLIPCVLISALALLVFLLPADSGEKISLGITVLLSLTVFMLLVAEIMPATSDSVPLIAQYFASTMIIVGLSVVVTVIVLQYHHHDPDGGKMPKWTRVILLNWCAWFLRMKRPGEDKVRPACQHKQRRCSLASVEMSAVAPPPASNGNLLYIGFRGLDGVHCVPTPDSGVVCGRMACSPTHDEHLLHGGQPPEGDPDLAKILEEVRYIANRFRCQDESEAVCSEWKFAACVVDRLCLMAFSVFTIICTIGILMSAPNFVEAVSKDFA

A word on the melting point: it is the temperature, or range, at which the solid turns liquid. For the compound `COc1ccc(-c2nc(C)nc(-c3ccc(C(F)(F)F)cc3F)c2N)cc1` [Compound 15, 4-(2-Fluoro-4-trifluoromethyl-phenyl)-6-(4-methoxy-phenyl)-2-methyl-pyrimidin-5-ylamine], the melting point was in the range of 129.2 to 130.6 °C.

Usually EC50 stands for the midpoint of the concentration-response curve. The compound `Nc1c(-c2ccc(O)cc2)cc(F)cc1-c1ccc(C(F)(F)F)cc1F` [Compound 6, 2′-Amino-5′,2″-difluoro-4″-trifluoromethyl-[1,1′;3′,1″]terphenyl-4-ol] had a melting point of 97.8 to 98.9 °C. In addition, on nAChR α7 receptors, the “effect on acetylcholine-induced current amplitude” value was “robust increase”, the “maximal modulation of the acetylcholine response (Imax)” value is 361% and the EC50 was 1400 nM.

Regarding `Nc1c(-c2ccc3[nH]ccc3c2)cncc1-c1ccc(C(F)(F)F)cc1F` [Compound 23, 3-(2-Fluoro-4-trifluoromethyl-phenyl)-5-(1H-indol-5-yl)-pyridin-4-ylamine], the melting point lay in the range of 103 to 106 °C.

On to `Nc1c(-c2ccc(O)cc2)cncc1-c1ccc(C(F)(F)F)cc1F` [Compound 22, 4-[4-Amino-5-(2-fluoro-4-trifluoromethyl-phenyl)-pyridin-3-yl]-phenol], for which the melting point is 133.6 to 134.8 °C.

Regarding `Nc1c(-c2ccc(O)cc2)ncnc1-c1ccc(Cl)cc1Cl` [Compound 2, 4-[5-Amino-6-(2,4-dichloro-phenyl)-pyrimidin-4-yl]-phenol], the melting point was 97.3 to 98.2 °C. On nAChR α7 receptors, the “effect on acetylcholine-induced current amplitude” value is on record as “robust increase”, the “maximal modulation of the acetylcholine response (Imax)” value is 299% and the concentration for a half-maximal effect (EC50) is 1200 nM.

In the case of `Cc1nc(-c2ccc3c(c2)OCO3)c(N)c(-c2ccc(C(F)(F)F)cc2F)n1` [Compound 14, 4-Benzo[1,3]-dioxol-5-yl-6-(2-fluoro-4-trifluoromethyl-phenyl)-2-methyl-pyrimidin-5-ylamine], the melting point is 162.5 to 163.3 °C.

Compound `COc1ccc(-c2ncnc(-c3ccc(C(F)(F)F)cc3F)c2N)c(OC)c1` [Compound 7, 4-(2,4-Dimethoxy-phenyl)-6-(2-fluoro-4-trifluoromethyl-phenyl)-pyrimidin-5-ylamine] returned a melting point of 191.5 to 192.8 °C.

For the compound `COc1ccc(-c2nc(N)nc(-c3ccc(C(F)(F)F)cc3F)c2N)cc1` [Compound 17, 4-(2-Fluoro-4-trifluoromethyl-phenyl)-6-(4-methoxy-phenyl)-pyrimidine-2,5-diamine], the melting point fell in the range of 125.8 to 127.1 °C.

For `Nc1c(-c2ccc(S(N)(=O)=O)cc2)ncnc1-c1ccc(C(F)(F)F)cc1F` [Compound 11, 4-[5-Amino-6-(2-fluoro-4-trifluoromethyl-phenyl)-pyrimidin-4-yl]-benzenesulfonamide], the melting point fell in the range of 174.8 to 176.1 °C.

Take `Nc1c(-c2ccc3[nH]ccc3c2)ncnc1-c1ccc(C(F)(F)F)cc1F` [Compound 10, 4-(2-Fluoro-4-trifluoromethyl-phenyl)-6-(1H-indol-5-yl)-pyrimidin-5-ylamine]: the melting point lay within 216.1 to 217.8 °C.

Consider `COc1ccc(-c2cnnc(-c3ccc(C(F)(F)F)cc3F)c2N)cc1` [Compound 19, 3-(2-Fluoro-4-trifluoromethyl-phenyl)-5-(4-methoxy-phenyl)-pyridazin-4-ylamine], for which the melting point was in the range of 215.3 to 216.2 °C.

For `COc1ccc(-c2nc(C)nc(-c3ccc(C(F)(F)F)cc3F)c2N)cc1Cl` [Compound 12, 4-(3-Chloro-4-methoxy-phenyl)-6-(2-fluoro-4-trifluoromethyl-phenyl)-2-methyl-pyrimidin-5-ylamine], the melting point lay in the range of 104.5 to 105.2 °C.

For the compound `Nc1c(-c2ccc(S(N)(=O)=O)cc2)cc(F)cc1-c1ccc(C(F)(F)F)cc1F` [Compound 25, 2′-Amino-5′,2″-difluoro-4″-trifluoromethyl-[1,1′;3′,1″]terphenyl-4-sulfonic acid amide], the melting point fell in the range of 189.4 to 191.2 °C.

Compound `Nc1c(-c2ccc(O)cc2)cnnc1-c1ccc(C(F)(F)F)cc1F` [Compound 20, 4-[5-Amino-6-(2-fluoro-4-trifluoromethyl-phenyl)-pyridazin-4-yl]-phenol] came in with a melting point of 251 to 252.2 °C.

Turning to `COc1ccc(-c2ncnc(-c3ccc(C(F)(F)F)cc3F)c2N)c(O)c1` [Compound 9, 2-[5-Amino-6-(2-fluoro-4-trifluoromethyl-phenyl)-pyrimidin-4-yl]-5-methoxy-phenol], the melting point was in the range of 150 to 151.5 °C.

The compound `Nc1nc(-c2ccc(O)cc2)c(N)c(-c2ccc(C(F)(F)F)cc2F)n1` [Compound 18, 4-[2,5-Diamino-6-(2-fluoro-4-trifluoromethyl-phenyl)-pyrimidin-4-yl]-phenol] displayed a melting point of 226.3 to 227.5 °C.

In turn, `COc1ccc(-c2cc(F)cc(-c3ccc(C(F)(F)F)cc3F)c2N)cc1` [Compound 5, 5′,2″-Difluoro-4-methoxy-4″-trifluoromethyl-[1,1′;3′,1″]terphenyl-2′-ylamine] yielded a melting point of 85.2 to 86.3 °C.

Take `COc1ccc(-c2ncnc(-c3ccc(Cl)cc3Cl)c2N)cc1` [Compound 1, 4-(2,4-Dichloro-phenyl)-6-(4-methoxy-phenyl)-pyrimidin-5-ylamine]: the melting point is 141.3 to 142.1 °C.

As for `Cc1nc(-c2ccc(O)cc2)c(N)c(-c2ccc(C(F)(F)F)cc2F)n1` [Compound 16, 4-[5-Amino-6-(2-fluoro-4-trifluoromethyl-phenyl)-2-methyl-pyrimidin-4-yl]-phenol], the melting point fell in the range of 175.4 to 176.9 °C.

In the case of `COc1ccc(-c2cncc(-c3ccc(C(F)(F)F)cc3F)c2N)cc1` [Compound 21, 3-(2-Fluoro-4-trifluoromethyl-phenyl)-5-(4-methoxy-phenyl)-pyridin-4-ylamine], the melting point lay in the range of 169.5 to 170.3 °C.

Compound `COc1ccc(-c2nc(C)nc(-c3ccc(C(F)(F)F)cc3F)c2[N+](=O)[O-])cc1` [Compound 13, 4-(2-Fluoro-4-trifluoromethyl-phenyl)-6-(4-methoxy-phenyl)-2-methyl-5-nitro-pyrimidine] registered a melting point of 100.8 to 101.8 °C.
